Where “and” joins values, the source holds several entries; their conditions need not be identical. Equal entries are not always repeated. Where two headings read alike, the source gives them in different places.
Tests used:
[1] = molecular target: T1, human PTP1B (Homo sapiens, UniProt P18031); test: PTP1B assay, pNPP hydrolysis, assayed exactly as for PTP1; type: biochemical; details: for inhibition at 1 µM / inhibition at 10 µM / inhibition at 100 µM: Table 2, read-out: PTP1B Inhib PTP1B. % Inhib; for PTP1B Inhib PTP1B. % Inhib: Table 2
T1 construct: human PTP1B (amino acid residues 1-321); made in house; host or cells: E. coli BL21(DE3)
T1 sequence (P18031 1-321): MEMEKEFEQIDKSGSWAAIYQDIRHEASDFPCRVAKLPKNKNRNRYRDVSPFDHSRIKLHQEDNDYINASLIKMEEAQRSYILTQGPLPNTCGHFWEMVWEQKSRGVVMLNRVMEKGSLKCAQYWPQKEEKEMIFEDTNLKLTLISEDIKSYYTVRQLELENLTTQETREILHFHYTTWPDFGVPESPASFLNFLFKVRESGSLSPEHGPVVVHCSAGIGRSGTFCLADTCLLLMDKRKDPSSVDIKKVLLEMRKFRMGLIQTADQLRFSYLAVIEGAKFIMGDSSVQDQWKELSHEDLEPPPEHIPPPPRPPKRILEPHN
From the text: The equivalent construct of human PTP1B (amino acid residues 1-321) (cloned from a human placental library), without the GST tag and thrombin cleavage site, was inserted into a pMB replicon and transformed into E. coli BL21(DE3), a strain containing a chromosomal copy of the gene for T7 RNA polymerase under control of a lacUV5 promoter. Expression of PTP1B was induced with isopropyl thiogalactose and the soluble protein was purified by ion exchange, hydrophobic interaction and gel exclusion chromatography for use in the assay to identify PTP inhibitors.
PTP1 activity is measured using either p-nitrophenol phosphate (pNPP) or a triphosphopeptide (that matches residues 1142 through 1153 of the β-subunit and the insulin receptor) as substrate in a 96-well microtiter plate format. An assay pH of 7.2 is used for standard assays (measured 405=9800 at pH 7.2).
Human PTP1B, which is highly homologous to rat PTP1, was assayed exactly as described above for PTP1.
Standard assays are conducted at room temperature in a total volume of 0.2 ml that contains Hepes buffer (50 mM, pH 7.2), NaCl (50 mM), EDTA (1 mM), DTT (1 mM), bovine serum albumin (1 mg/ml), pNPP (1 mM) and PTP1 (35 ng/ml). Compounds (2 μl of 10 mM solutions) are pipetted into wells of microtiter plates followed by 198 μl of premixed reaction mix (with PTP1 and pNPP added immediately before use). The rate of change in A405 is recorded for 60 min. Two wells on each plate contain DMSO controls and two wells contain sodium orthovanadate (1 mM) which inhibits PTP1-catalyzed hydrolysis of pNPP completely. Data are expressed as percent inhibition relative to the average of the DMSO controls measured on the same microtiter plate.

[2] = molecular target: T2, rat PTP1 (Rattus norvegicus, UniProt P20417); test: PTP1 assay, pNPP hydrolysis (rate of change in A405); type: biochemical
T2 construct: a C-terminal truncation of rat PTP1 (amino acid residues 1-322); GST (N, cleaved yes); made in house; host or cells: E. coli strain TG-1 (pGEX-2T)
T2 sequence (P20417 1-322): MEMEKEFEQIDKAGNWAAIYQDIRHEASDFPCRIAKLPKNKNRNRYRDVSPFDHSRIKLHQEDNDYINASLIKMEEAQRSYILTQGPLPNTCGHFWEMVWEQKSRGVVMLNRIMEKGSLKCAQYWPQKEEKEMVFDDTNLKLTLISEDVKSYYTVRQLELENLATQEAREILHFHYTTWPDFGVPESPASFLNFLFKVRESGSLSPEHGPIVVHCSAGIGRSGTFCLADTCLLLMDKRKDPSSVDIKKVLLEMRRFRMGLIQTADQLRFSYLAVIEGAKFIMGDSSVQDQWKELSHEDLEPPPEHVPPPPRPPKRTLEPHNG
How it was run: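 Thrombin-cleaved rat PTP1 residues 1-322 (35 ng/ml) with 1 mM pNPP in 50 mM Hepes pH 7.2, NaCl, EDTA, DTT, BSA at room temperature. A405 rate followed 60 min. Compounds added as 10 mM solutions; percent inhibition relative to plate DMSO controls, 1 mM orthovanadate as full-inhibition control.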

[3] = Conc 1 uM, pNPP hydrolysis, Table 1, read-out: PTP1 Inhib % Inhib
[4] = Conc 10 uM, pNPP hydrolysis, Table 1, read-out: PTP1 Inhib % Inhib
[5] = Conc 100 uM, pNPP hydrolysis, Table 1, read-out: PTP1 Inhib % Inhib

| SMILES | inhibition at 1 µM ([1]; Conc 1 uM) [%] | inhibition at 10 µM ([1]; Conc 10 uM) [%] | inhibition at 100 µM ([1]; Conc 100 uM) [%] | other results |
| --- | --- | --- | --- | --- |
| CCCCCNC(=O)C(Cc1ccc(OC(COO)COO)cc1)NC(=O)C(CC[S+](C)[O-])NC(=O)OC(C)(C)C (stereo not drawn) | 7 | 21 | 67 | – |
| CCCCCNC(=O)C(Cc1ccc(OC(COO)COO)cc1)NC(=O)C(CC(C)C)NC(=O)OC(C)(C)C (stereo not drawn) | 4 | 24 | 76 | – |
| CCCCCNC(=O)C(Cc1ccc(OCCOO)c(COO)c1)NC(=O)C(Cc1ccccc1)NC(=O)CCc1ccccc1 (stereo not drawn) | 22 | 74 | 95 | – |
| CCCCCNC(=O)C(Cc1ccc(OCCOO)c(COO)c1)NC(=O)C(Cc1ccccc1)NC(=O)Cc1ccc(C)cc1 (stereo not drawn) | 39 | 85 | 98 | – |
| CCCCCNC(=O)C(Cc1ccc(OCCOO)c(COO)c1)NC(=O)C(Cc1ccccc1)NC(=O)CCNC(=O)OC(C)(C)C (stereo not drawn) | 19 | 75 | 96 | – |
| CCCCCNC(=O)C(Cc1ccc(OCCOO)c(COO)c1)NC(=O)C(Cc1ccc(O)cc1)NC(=O)OC(C)(C)C (stereo not drawn) | 32 | 81 | 97 | PTP1B Inhib PTP1B. % Inhib ([1]; Conc 1 uM): 28%; PTP1B Inhib PTP1B. % Inhib ([1]; Conc 10 uM): 78%; PTP1B Inhib PTP1B. % Inhib ([1]; Conc 100 uM): 96% |
| CCCCCNC(=O)C(Cc1ccc(OCCOO)c(COO)c1)NC(=O)C(C)NC(=O)OC(C)(C)C (stereo not drawn) | 8 | 43 | 86 | – |
| CCCCCNC(=O)[C@H](Cc1ccc(OCC(=O)O)c(-c2nn[nH]n2)c1)NC(=O)[C@H](Cc1ccccc1)NC(=O)OC(C)(C)C | – | – | 87 | PTP1B Inhib PTP1B. % Inhib ([1]; Conc 100 uM): 97% |
| CCCCCNC(=O)C(Cc1ccc(OC(COO)COO)cc1)NC(=O)C(Cc1ccccc1)NC(=O)CCN(CC)CC (stereo not drawn) | 12 | 54 | 92 | – |
| CCCCCNC(=O)C(Cc1ccc(OCCOO)c(COO)c1)NC(=O)C(Cc1ccccc1)NC(=O)OC(C)(C)C (stereo not drawn) [drawing 189] | – | – | – | PTP1B Inhib PTP1B. % Inhib ([1]; Conc 1 uM): 2%; PTP1B Inhib PTP1B. % Inhib ([1]; Conc 10 uM): 19%; PTP1B Inhib PTP1B. % Inhib ([1]; Conc 100 uM): 69% |
| CCCCCNC(=O)C(Cc1ccc(OCCOO)c(COO)c1)NC(=O)CCc1ccccc1 (stereo not drawn) | 4 | 15 | 60 | – |
| CCCCCNC(=O)C(Cc1ccc(OC(COO)COO)cc1)NC(=O)C(CC(N)=O)NC(=O)OC(C)(C)C (stereo not drawn) | 9 | 40 | 85 | – |
| CCCCCNC(=O)C(Cc1ccc(OCCOO)c(COO)c1)NC(=O)N(Cc1ccccc1)Cc1ccccc1 (stereo not drawn) | 11 | 45 | 87 | – |
| CCCCCNC(=O)C(Cc1ccc(OC(COO)COO)cc1)NC(=O)C(Cc1ccccc1)NC(=O)CCNC(=O)OC(C)(C)C (stereo not drawn) | 14 | 62 | 93 | – |
| CCCCCNC(=O)C(Cc1ccc(OCCOO)c(COO)c1)NC(=O)C(Cc1ccccc1)NC(=O)Cc1ccc(OC)cc1 (stereo not drawn) | 46 | 87 | 97 | – |
| CCCCCNC(=O)[C@H](Cc1ccc(OC(C(=O)O)C(=O)O)cc1)NC(=O)CCCC(=O)O | – | – | – | inhibition at 1 µM [2, 3]: 2%; inhibition at 10 µM [2, 4]: 17%; inhibition at 100 µM [2, 5]: 67% |
| CCCCCNC(=O)C(Cc1ccc(OC(COO)COO)cc1)NC(=O)C(Cc1ccc(OCc2c(Cl)cccc2Cl)cc1)NC(=O)CCC(=O)O (stereo not drawn) | – | – | – | inhibition at 1 µM ([2]; Conc 1 uM, pNPP hydrolysis, Table 2, read-out: PTP1 Inhib PTP1N. % Inhib): 11%; inhibition at 10 µM ([2]; Conc 10 uM, pNPP hydrolysis, Table 2, read-out: PTP1 Inhib PTP1N. % Inhib): 70%; inhibition at 100 µM ([2]; Conc 100 uM, pNPP hydrolysis, Table 2, read-out: PTP1 Inhib PTP1N. % Inhib): 98% |
| CCCCCNC(=O)[C@H](Cc1ccc(OC(C(=O)O)C(=O)O)cc1)NC(=O)[C@H](CC(=O)O)NC(=O)CCCCC | – | – | – | inhibition at 1 µM [2, 3]: 14%; inhibition at 10 µM [2, 4]: 57%; inhibition at 100 µM [2, 5]: 91% |
| CCCCCNC(=O)C(Cc1ccc(OC(COO)COO)cc1)NC(=O)CCC(=O)O (stereo not drawn) [drawing 101] | – | – | – | PTP1 Inhib % Inhib ([2]; Conc 1 uM, pNPP hydrolysis, Table 1): 3%; PTP1 Inhib % Inhib ([2]; Conc 10 uM, pNPP hydrolysis, Table 1): 4%; PTP1 Inhib % Inhib ([2]; Conc 100 uM, pNPP hydrolysis, Table 1): 39% |
| CC(C)(C)OC(=O)N[C@@H](Cc1ccccc1)C(=O)N[C@@H](Cc1ccc(OCC(=O)O)c(C(=O)O)c1)C(=O)NCCCCc1ccccc1 [Example 157-2, 5-{(2S)-2-({(2S)-2-[(tert-Butoxycarbonyl)amino]-3-phenylpropanoyl}amino)-3-oxo-3-[(4-phenylbutyl)amino]propyl}-2-(carboxymethoxy)benzoic Acid] | – | – | – | inhibition at 1 µM ([2]; inhibition of pNPP-hydrolysis, compound concentration 1 μM, read-out: % Inhibition): 64%; inhibition at 10 µM ([2]; inhibition of pNPP-hydrolysis, compound concentration 10 μM, read-out: % Inhibition): 93%; inhibition at 100 µM ([2]; inhibition of pNPP-hydrolysis, compound concentration 100 μM, read-out: % Inhibition): 98% |
| CCCCCNC(=O)[C@H](Cc1ccc(OC(C(=O)O)C(=O)O)cc1)NC(=O)c1ccccc1C(=O)O | – | – | – | inhibition at 1 µM [2, 3]: 2%; inhibition at 10 µM [2, 4]: 14%; inhibition at 100 µM [2, 5]: 63% |

Now from value to compound, other results behind:

| inhibition at 1 µM ([1]; Conc 1 uM) [%] | inhibition at 10 µM ([1]; Conc 10 uM) [%] | inhibition at 100 µM ([1]; Conc 100 uM) [%] | SMILES | other results |
| --- | --- | --- | --- | --- |
| 5 | 8 | 42 | CCCCCNC(=O)C(Cc1ccc(OC(COO)COO)cc1)NC(=O)N(Cc1ccccc1)C(CCc1ccccc1)CC(=O)O (stereo not drawn) | – |
| 49 | 88 | 98 | CCCCCNC(=O)[C@H](Cc1ccc(OCC(=O)O)c(C(=O)O)c1)NC(=O)C(Cc1ccccc1)NC(=O)CSc1cnn[nH]1 (stereo partly drawn) | – |
| 24 | 71 | 94 | CCCCCNC(=O)[C@H](Cc1ccc(OCC(=O)O)c(C(=O)O)c1)NC(=O)C(Cc1ccccc1)N1CCCC1=O (stereo partly drawn) | – |
| 36 | 82 | 96 | CCCCCNC(=O)[C@H](Cc1ccc(OCC(=O)O)c(C(=O)O)c1)NC(=O)C(Cc1ccccc1)NC(=O)CSc1nnc[nH]1 (stereo partly drawn) | – |
| 19 | 65 | 94 | CCCCCNC(=O)C(Cc1ccc(OC(COO)COO)cc1)NC(=O)C(Cc1ccccc1)NC(=O)CCOC (stereo not drawn) | – |
| 6 | 8 | 30 | CCCCCNC(=O)[C@H](Cc1ccc(OCC(=O)NO)c(C(=O)O)c1)NC(=O)[C@H](Cc1ccccc1)NC(=O)OC(C)(C)C | – |
| 1 | 5 | 25 | CCCCCNC(=O)C(Cc1ccc(OCC(=O)O)c(OCC(=O)O)c1)NC(=O)C(Cc1ccccc1)NC(=O)OC(C)(C)C (stereo not drawn) | – |
| 9 | 15 | 48 | CCCCCNC(=O)C(Cc1ccc(OC(COO)C(=O)O)cc1)C(=O)NCCC(=O)O (stereo not drawn) | – |
| 3 | 6 | 29 | CCCCCNC(=O)[C@H](Cc1ccc(N(CC(=O)O)CC(=O)O)cc1)NC(=O)[C@H](Cc1ccccc1)NC(=O)OC(C)(C)C | – |
| 2 | – | 58 | CCCCCNC(=O)C(Cc1ccc(OC(COO)COO)cc1)NC(=O)C(CCc1ccccc1)NC(=O)OC(C)(C)C (stereo not drawn) | PTP1B Inhib PTP1B. % Inhib ([1]; Conc 10 uM): 7% and 17%; PTP1B Inhib PTP1B. % Inhib ([1]; Conc 100 uM): 77% |

Reference: patent US6410585B1, “Inhibitors of protein tyrosine phosphatase” (priority 1997, dated 2002)
